# Assay results: US9328397B2, “Removal of arsenic using a dissimilatory arsenic reductase” (UNIWERSYTET WARSZAWSKI, priority 2013, dated 2016)
# Key:
# [1] = tested on: Shewanella sp. O23S strain; assay: Minimal inhibitory concentration (MIC) of heavy metals in LB medium; format: cell-based; conditions: 24 hours at 22° C., OD600
# [2] = tested on: Shewanella sp. O23S strain; assay: Dissimilatory reduction of 2.5 mM sodium arsenate in the presence of heavy metals; format: cell-based; conditions: minimal R1-R2 medium; for Reduction of arsenic in the presence of the metal (maximum concentration of metals allowing for dissimilatory reduction of 2.5 mM sodium arsenate): 5 mM sodium lactate
SMILES,MIC value [1],Reduction of arsenic in the presence of the metal (maximum concentration of metals allowing for dissimilatory reduction of 2.5 mM sodium arsenate) [2],capability of dissimilatory reduction in the presence of the metal [2]
"O.O.O.O.O.O.O.O=S(=O)([O-])[O-].[Zn+2] [Zn(II), ZnSO4•7H20]",3 mM,2 mM,–
"[Na+].[O]=[V](=[O])[O-] [V(V), NaVO3]",>20 mM,>5 mM,–
"O.O.O.O.O.O.O.O.O.O.O=[Se](=O)([O-])[O-].[Na+].[Na+] [Se(VI), Na2SeO4•10H2O]",>20 mM,5 mM,–
[Fe+3] [Fe(III)],5 mM,–,not demonstrated
"O.O.O.O.O.O.O.O.O=S(=O)([O-])[O-].[Cd+2] [Cd(II), CdSO4•8H2O]",1 mM,1 mM,–
"O.O.O.O.O.O.O.O=S(=O)([O-])[O-].[Co+2] [Co(II), CoSO4•7H2O]",2 mM,2 mM,–
"O.O=S(=O)([O-])[O-].[Mn+2] [Mn(II), MnSO4•H2O]",>20 mM,>5 mM,–
"O.O.O.O.O.O=S(=O)([O-])[O-].[Cu+2] [Cu(II), CuSO4•5H2O]",3 mM,2 mM,–
"O.O.O.O.O.O.O.O.O.O.O.O.O.O.O.O.O.O.O=S(=O)([O-])[O-].O=S(=O)([O-])[O-].O=S(=O)([O-])[O-].[Cr+3].[Cr+3] [Cr(III), Cr2(SO4)3•18H2O]",5 mM,3 mM,–
